Laboratory results from BindingDB's records for patent US20240025922 (Merck Patent, 2024).

Target: Mitogen-activated protein kinase kinase kinase kinase 1 (Homo sapiens, UniProt Q92918)
Test: HPK1 Kinase Assay (Biochemical Assay)
Protocol: A recombinant fusion protein consisting of full-length human HPK1 (MAP4K1) with an N-terminal Glutatione S-transferase (GST) tag was produced in insect cells Sf21 using the baculovirus expression system. GST-HPK1 protein was purified from cell lysates by glutathione Sepharose affinity chromatography. The assay is run in three continuous steps: 1) the HPK1 enzymatic kinase reaction, 2) an ATP depletion, and 3) the ADP detection, the steps 2 and 3 are performed with ADP-Glo Kinase Assay kit from Promega (V9101). […] After 120 minutes, the reaction was stopped by adding 5 μL of ADP-Glo reagent (Promega, V9101) and incubating for 40 min. in the dark at 23 C. To determine the level of ADP, 10 μl ADP-Glo Detection solution was added and incubated for 1 hour at 23 C. in the dark.

Chain of Mitogen-activated protein kinase kinase kinase kinase 1 (Q92918 whole entry): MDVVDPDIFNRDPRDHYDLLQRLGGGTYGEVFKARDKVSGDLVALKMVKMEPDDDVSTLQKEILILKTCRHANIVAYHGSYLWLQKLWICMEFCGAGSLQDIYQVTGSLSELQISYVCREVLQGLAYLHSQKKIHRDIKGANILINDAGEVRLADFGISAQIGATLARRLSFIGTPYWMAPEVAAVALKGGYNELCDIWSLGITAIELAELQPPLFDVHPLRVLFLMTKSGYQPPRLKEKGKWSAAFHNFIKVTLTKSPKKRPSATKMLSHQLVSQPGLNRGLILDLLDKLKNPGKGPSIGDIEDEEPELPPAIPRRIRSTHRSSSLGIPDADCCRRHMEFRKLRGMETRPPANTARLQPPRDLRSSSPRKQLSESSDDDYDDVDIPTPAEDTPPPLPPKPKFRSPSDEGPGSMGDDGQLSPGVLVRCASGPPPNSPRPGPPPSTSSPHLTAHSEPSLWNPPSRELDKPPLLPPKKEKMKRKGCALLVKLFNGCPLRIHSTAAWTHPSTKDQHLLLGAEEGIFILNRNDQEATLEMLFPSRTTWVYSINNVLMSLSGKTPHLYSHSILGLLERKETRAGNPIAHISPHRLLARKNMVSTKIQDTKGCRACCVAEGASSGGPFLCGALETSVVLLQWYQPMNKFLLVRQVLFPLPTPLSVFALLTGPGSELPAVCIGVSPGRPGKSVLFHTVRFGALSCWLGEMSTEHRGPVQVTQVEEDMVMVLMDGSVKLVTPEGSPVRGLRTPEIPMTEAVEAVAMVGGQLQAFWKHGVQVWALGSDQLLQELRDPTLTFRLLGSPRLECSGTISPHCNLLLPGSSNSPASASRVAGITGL

Compared with COc1cccc(F)c1N1CCc2cnc(Nc3cnc4c(c3)CN(C)CC4)nc2C1 [US20240025922, Example 120], Cc1c(N2CCc3cnc(Nc4cc5n(n4)CC(=O)N(C(C)C)CC5)nc3C2)cnc2c1NCCO2 [US20240025922, Example 89] is higher in IC50: less than 100 nM for the first, greater than 1000 nM for the second. The first is the more potent here.

With Cc1cc(Nc2cc3c(cn2)CCN(c2cnc4c(c2Cl)NCCO4)C3)nn1CC(=O)N(C)C [US20240025922, Example 131] the IC50 was greater than 1000 nM.
